{"source": "paper PMC5423501", "about": "(The Oncologist, 2017)", "key": {"[1]": {"tested_on": "patients with HIV and cancer", "conditions": "cited from earlier work"}, "[2]": {"tested_on": "Kaposi sarcoma", "test": "KS response assessment", "format": "in vivo, human"}, "[3]": {"test": "Steady-state plasma pharmacokinetics, cycle 1 day 8", "format": "in vivo, human"}, "[4]": {"tested_on": "IL‐12p40", "test": "Serum factors, V-Plex assay, baseline vs end of cycle 1", "format": "in vivo, human", "conditions": "baseline to end of cycle 1; p = .002"}, "[5]": {"tested_on": "bFGF", "test": "Serum factors, V-Plex assay, baseline vs end of cycle 1", "format": "in vivo, human", "conditions": "baseline to end of cycle 1; p = .018"}, "[6]": {"tested_on": "patients with Kaposi sarcoma", "conditions": "in vivo"}, "[7]": {"tested_on": "patients with HIV and HCC", "conditions": "27 patients with HIV and HCC, 400 mg sorafenib twice daily, retrospective; cited from earlier work"}, "[8]": {"tested_on": "patients with HCC", "conditions": "phase III trial in HCC; cited from earlier work"}}, "note": "Entries after “also recorded” stand apart in the source; their conditions may differ. Where two headings read alike, the source gives them in different places.", "data": [{"smiles": "CCN(CC)CCNC(=O)c1c(C)[nH]c(/C=C2\\C(=O)Nc3ccc(F)cc32)c1C", "note": "[sunitinib]", "values": [{"measurement": "tolerability", "setting": "[1]; HIV patients not taking ritonavir", "value": "tolerated standard dosing"}, {"measurement": "tolerability", "setting": "[1]; patients receiving ritonavir", "value": "higher toxicities at lower doses"}, {"measurement": "effect of ritonavir on sunitinib and active metabolite", "setting": "[1]; patients with HIV and cancer", "value": "decreases in the sunitinib active metabolite but not the parent drug"}]}, {"smiles": "CNC(=O)c1cc(Oc2ccc(NC(=O)Nc3ccc(Cl)c(C(F)(F)F)c3)cc2)ccn1", "note": "[Sorafenib]", "values": [{"measurement": "ORR in patients evaluable for response", "setting": "[2]; 2/7, 95% CI 4%–71%", "value": 29, "unit": "%"}, {"measurement": "ORR in all patients", "setting": "[2]; 2/10, 95% CI 3%–56%", "value": 20, "unit": "%"}, {"measurement": "Median duration of SD", "setting": "[2]; range 1–5, 21-day cycles", "value": 4, "unit": "cycles"}, {"measurement": "CMAX and AUC0-12h of sorafenib compared with literature", "setting": "[3]; 200 mg dose at steady state", "value": "within reported ranges"}, {"measurement": "effect of ritonavir on steady-state AUCTAU (exposure) of sorafenib", "setting": "[3]; cohort on ritonavir vs not on ritonavir", "value": "not significantly affected by ritonavir; also recorded: only modestly affected"}, {"measurement": "change in serum IL-12p40", "setting": "[4]", "value": "statistically significant decrease"}, {"measurement": "change in serum bFGF", "setting": "[5]", "value": "potential trend towards decreased bFGF"}, {"measurement": "patients with grade 3 toxicities that did not meet DLT criteria", "setting": "[6]", "value": "five"}, {"measurement": "diarrhea, grade 3–4 AE", "setting": "[7]", "value": 15, "unit": "%"}, {"measurement": "hypertension, grade 3–4 AE", "setting": "[7]", "value": 11, "unit": "%"}, {"measurement": "palmar-plantar erythrodysesthesia syndrome, grade 3–4 AE", "setting": "[7]", "value": 15, "unit": "%"}, {"measurement": "diarrhea, grade 3–4 AE", "setting": "[8]", "value": 8, "unit": "%"}, {"measurement": "hypertension, grade 3–4 AE", "setting": "[8]", "value": 2, "unit": "%"}, {"measurement": "palmar-plantar erythrodysesthesia syndrome, grade 3–4 AE", "setting": "[8]", "value": 8, "unit": "%"}]}, {"smiles": "CNC(=O)c1cc(Oc2ccc(NC(=O)Nc3ccc(Cl)c(C(F)(F)F)c3)cc2)cc[n+]1[O-]", "note": "[Sorafenib N-Oxide, Sorafenib N‐oxide]", "values": [{"measurement": "decrease of AUCTAU of sorafenib-N-oxide in patients receiving ritonavir", "setting": "[3]; trend, p = .08", "value": 3.8, "unit": "fold"}]}]}
